Experimental data published in ChEMBL document CHEMBL3992502, “Structural optimization of diphenylpyrimidine derivatives (DPPYs) as potent Bruton's tyrosine kinase (BTK) inhibitors with improved activity toward B leukemia cell lines” (Eur J Med Chem, 2017).
Blank lines part the entries; values can stand above or below the compound they belong to.

Experiments:
Raji = test: Antiproliferative activity against human Raji cells after 48 hrs by CCK-8 assay
Ramos [1] = test: Antiproliferative activity against human Ramos cells after 48 hrs by CCK-8 assay; type: functional, cell-based
[2] = biological target: T1, Tyrosine-protein kinase BTK (Homo sapiens, UniProt Q06187); test: Inhibition of N-terminal His-tagged full length human recombinant BTK expressed in baculovirus infected Sf9 insect cells using Poly (4:1 Glu, Tyr) peptide substrate incubated for 60 mins by ADP-Glo luminescence assay
T1 sequence (Q06187 whole entry): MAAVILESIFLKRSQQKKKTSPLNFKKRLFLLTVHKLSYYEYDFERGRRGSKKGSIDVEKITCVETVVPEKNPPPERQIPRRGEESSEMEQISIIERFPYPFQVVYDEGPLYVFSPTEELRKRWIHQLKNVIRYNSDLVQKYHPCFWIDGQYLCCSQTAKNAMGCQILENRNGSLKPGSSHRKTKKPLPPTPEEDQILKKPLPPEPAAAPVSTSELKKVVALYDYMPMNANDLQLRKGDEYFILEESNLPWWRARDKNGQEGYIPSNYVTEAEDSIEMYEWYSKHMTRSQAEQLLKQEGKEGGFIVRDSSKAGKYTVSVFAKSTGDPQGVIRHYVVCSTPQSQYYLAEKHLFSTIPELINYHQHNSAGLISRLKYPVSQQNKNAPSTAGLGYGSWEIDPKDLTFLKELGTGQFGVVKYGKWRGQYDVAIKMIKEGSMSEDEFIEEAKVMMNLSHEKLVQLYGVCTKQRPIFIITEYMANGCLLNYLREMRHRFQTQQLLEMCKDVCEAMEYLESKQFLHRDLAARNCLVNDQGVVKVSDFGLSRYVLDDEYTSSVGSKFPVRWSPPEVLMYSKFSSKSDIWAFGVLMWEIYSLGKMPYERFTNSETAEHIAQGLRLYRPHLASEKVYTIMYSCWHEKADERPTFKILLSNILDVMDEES

Ramos [3] = test: Induction of apoptosis in human Ramos cells assessed as necrotic cells at 10 uM after 48 hrs by Annexin V-FITC/propidium iodide staining based flow cytometry (reference value: 1%); type: functional
Ramos [4] = test: Cell cycle arrest in human Ramos cells assessed as accumulation at S phase at 10 uM after 48 hrs by propidium iodide staining based flow cytometry (reference value: 42.23%); type: functional
Ramos [5] = test: Induction of apoptosis in human Ramos cells assessed as viable cells at 10 uM after 48 hrs by Annexin V-FITC/propidium iodide staining based flow cytometry (reference value: 94.3%); type: functional; settings: read-out: Activity
Ramos [6] = test: Cell cycle arrest in human Ramos cells assessed as accumulation at G0/G1 phase at 10 uM after 48 hrs by propidium iodide staining based flow cytometry (reference value: 56.19%); type: functional
Ramos [7] = test: Induction of apoptosis in human Ramos cells assessed as early apoptotic cells at 10 uM after 48 hrs by Annexin V-FITC/propidium iodide staining based flow cytometry (reference value: 1.7%); type: functional
Ramos [8] = test: Induction of apoptosis in human Ramos cells assessed as late apoptotic cells at 10 uM after 48 hrs by Annexin V-FITC/propidium iodide staining based flow cytometry (reference value: 3%); type: functional
Ramos [9] = test: Cell cycle arrest in human Ramos cells assessed as accumulation at G2/M phase at 10 uM after 48 hrs by propidium iodide staining based flow cytometry (reference value: 1.58%); type: functional
Ramos [10] = test: Cell cycle arrest in human Ramos cells assessed as accumulation at S phase at 20 uM after 48 hrs by propidium iodide staining based flow cytometry (reference value: 42.23%); type: functional
Ramos [11] = test: Induction of apoptosis in human Ramos cells assessed as early apoptotic cells at 20 uM after 48 hrs by Annexin V-FITC/propidium iodide staining based flow cytometry (reference value: 1.7%); type: functional
Ramos [12] = test: Cell cycle arrest in human Ramos cells assessed as accumulation at G2/M phase at 20 uM after 48 hrs by propidium iodide staining based flow cytometry (reference value: 1.58%); type: functional
Ramos [13] = test: Induction of apoptosis in human Ramos cells assessed as viable cells at 5 uM after 48 hrs by Annexin V-FITC/propidium iodide staining based flow cytometry (reference value: 94.3%); type: functional; settings: read-out: Activity
Ramos [14] = test: Induction of apoptosis in human Ramos cells assessed as necrotic cells at 20 uM after 48 hrs by Annexin V-FITC/propidium iodide staining based flow cytometry (reference value: 1%); type: functional
Ramos [15] = test: Induction of apoptosis in human Ramos cells assessed as late apoptotic cells at 20 uM after 48 hrs by Annexin V-FITC/propidium iodide staining based flow cytometry (reference value: 3%); type: functional
Ramos [16] = test: Cell cycle arrest in human Ramos cells assessed as accumulation at G0/G1 phase at 5 uM after 48 hrs by propidium iodide staining based flow cytometry (reference value: 56.19%); type: functional
Ramos [17] = test: Cell cycle arrest in human Ramos cells assessed as accumulation at S phase at 5 uM after 48 hrs by propidium iodide staining based flow cytometry (reference value: 42.23%); type: functional
Ramos [18] = test: Induction of apoptosis in human Ramos cells assessed as necrotic cells at 5 uM after 48 hrs by Annexin V-FITC/propidium iodide staining based flow cytometry (reference value: 1%); type: functional
Ramos [19] = test: Induction of apoptosis in human Ramos cells assessed as late apoptotic cells at 5 uM after 48 hrs by Annexin V-FITC/propidium iodide staining based flow cytometry (reference value: 3%); type: functional
PBMC = test: Cytotoxicity against human PBMC assessed as change in cell morphology at <20 uM after 24 hrs by phase contrast microscopy; type: cell-based
Ramos [20] = test: Induction of apoptosis in human Ramos cells assessed as early apoptotic cells at 5 uM after 48 hrs by Annexin V-FITC/propidium iodide staining based flow cytometry (reference value: 1.7%); type: functional
Ramos [21] = test: Induction of apoptosis in human Ramos cells assessed as viable cells at 20 uM after 48 hrs by Annexin V-FITC/propidium iodide staining based flow cytometry (reference value: 94.3%); type: functional; settings: read-out: Activity
[22] = biological target: T1, Tyrosine-protein kinase BTK; test: Irreversible inhibition of N-terminal His-tagged full length human recombinant BTK expressed in baculovirus infected Sf9 insect cells using Poly (4:1 Glu, Tyr) peptide substrate assessed as luminescence of compound linked enzyme at 5000 nmol/L incubated for 60 mins by ADP-Glo kinase assay (reference value: 9976)
Ramos [23] = test: Cell cycle arrest in human Ramos cells assessed as accumulation at G2/M phase at 5 uM after 48 hrs by propidium iodide staining based flow cytometry (reference value: 1.58%); type: functional
Ramos [24] = test: Cell cycle arrest in human Ramos cells assessed as accumulation at G0/G1 phase at 20 uM after 48 hrs by propidium iodide staining based flow cytometry (reference value: 56.19%); type: functional

SMILES: C=CC(=O)Nc1cccc(Nc2nc(Nc3ccc(NC(=O)CN(CCOC)CCOC)cc3)ncc2F)c1
IC50 (Raji): 36.9 µM
IC50 (Ramos [1]): 35.6 µM
IC50 [2]: 0.0913 µM

SMILES: C=CC(=O)Nc1cccc(Nc2nc(Nc3ccc(N(CCOC)CCOC)cc3)ncc2Cl)c1
IC50 (Raji): 30.5 µM
IC50 (Ramos [1]): 13 µM
IC50 [2]: 0.00494 µM

SMILES: C=CC(=O)Nc1cccc(Nc2nc(Nc3ccc(OCC(=O)OCC4CCCO4)cc3)ncc2Cl)c1 (stereo not given)
IC50 (Raji): 9.4 µM
IC50 (Ramos [1]): > 40 µM
IC50 [2]: 0.00023 µM

SMILES: C=CC(=O)Nc1cccc(Nc2nc(Nc3ccc(OCC(=O)N(CCOC)CCOC)c(Cl)c3)ncc2Cl)c1
IC50 (Raji): 19.3 µM
IC50 (Ramos [1]): 16.9 µM
IC50 [2]: > 0.1 µM

SMILES: C=CC(=O)Nc1cccc(Nc2nc(Nc3ccc(NC(=O)CN(CCOC)CCOC)cc3)ncc2Cl)c1
IC50 (Raji): 19.9 µM
IC50 (Ramos [1]): 14.8 µM
IC50 [2]: 0.0226 µM

SMILES: C=CC(=O)Nc1cccc(Nc2nc(Nc3ccc(NC(=O)CN(CCOC)CCOC)c(C)c3)ncc2Cl)c1
IC50 (Raji): 35.6 µM
IC50 (Ramos [1]): 19.6 µM
IC50 [2]: 0.02 µM

SMILES: C=CC(=O)Nc1cccc(Nc2nc(Nc3ccc(NC(=O)CN(CCOC)CCOC)c(OC)c3)ncc2Cl)c1
IC50 (Raji): 20.9 µM
IC50 (Ramos [1]): 11 µM
IC50 [2]: > 0.1 µM

SMILES: C=CC(=O)N1CCC[C@@H](n2nc(-c3ccc(Oc4ccccc4)cc3)c3c(N)ncnc32)C1 [IBRUTINIB]
Activity (Ramos [3]): 0.1%
Activity (Ramos [4]): 53.5%
IC50 (Ramos [1]): 12.6 µM
viability at 10 µM (Ramos [5]): 52%
Activity (Ramos [6]): 46.35%
Activity (Ramos [7]): 37%
Activity (Ramos [9]): 0.15%

More lines, main results first:

IC50 (Raji): 36 µM
IC50 (Ramos [1]): > 40 µM
IC50 [2]: 0.0272 µM
SMILES: C=CC(=O)Nc1cccc(Nc2nc(Nc3ccc(OCC(=O)N(CCOC)CCOC)cc3)ncc2F)c1

IC50 (Raji): 23.8 µM
IC50 (Ramos [1]): 18.1 µM
IC50 [2]: 0.00712 µM
SMILES: C=CC(=O)Nc1cccc(Nc2nc(Nc3ccc(N(CCOC)CCOC)cc3)ncc2F)c1

IC50 (Raji): 29.4 µM
IC50 (Ramos [1]): 20.9 µM
SMILES: C=CC(=O)Nc1cccc(Nc2nc(Nc3ccc(OCCOC)cc3)ncc2F)c1 [SPEBRUTINIB]
Activity (Ramos [3]): 4.3%
Activity (Ramos [4]): 47.9%
viability at 10 µM (Ramos [5]): 54%
Activity (Ramos [6]): 31.02%
Activity (Ramos [7]): 21.2%
Activity (Ramos [8]): 20.4%
Activity (Ramos [9]): 20.91%

IC50 (Raji): 38.6 µM
IC50 (Ramos [1]): 22.3 µM
IC50 [2]: 0.0224 µM
SMILES: C=CC(=O)Nc1cccc(Nc2nc(Nc3ccc(OCC4CCCO4)cc3)ncc2F)c1 (stereo not given)

IC50 (Raji): 19.1 µM
IC50 (Ramos [1]): 10.5 µM
Activity [22]: 383 RLU
IC50 [2]: 0.0121 µM
SMILES: C=CC(=O)Nc1cccc(Nc2nc(Nc3ccc(OCC4CCCO4)cc3)ncc2Cl)c1 (stereo not given)
Activity (Ramos [10]): 28.39%
Activity (Ramos [3]): 1.2%
Activity (Ramos [4]): 37%
viability at 10 µM (Ramos [5]): 50%
Activity (Ramos [11]): 26.4%
Activity (Ramos [6]): 63%
Activity (Ramos [12]): 0.86%
viability at 5 µM (Ramos [13]): 50.1%
Activity (Ramos [14]): 0.1%
Activity (Ramos [15]): 57.2%
Activity (Ramos [16]): 53.18%
Activity (Ramos [7]): 12.6%
Activity (Ramos [17]): 46.82%
Activity (Ramos [18]): 2.2%
Activity (Ramos [8]): 34.2%
Activity (Ramos [19]): 27%
Activity (PBMC): Non-Toxic
Activity (Ramos [20]): 11%
viability at 20 µM (Ramos [21]): 16.2%
Activity (Ramos [9]): 0%
Activity (Ramos [23]): 0%
Activity (Ramos [24]): 70.75%

IC50 (Raji): 20.1 µM
IC50 (Ramos [1]): 18.1 µM
IC50 [2]: 0.00283 µM
SMILES: C=CC(=O)Nc1cccc(Nc2nc(Nc3ccc(OCC(=O)N(CCOC)CCOC)cc3)ncc2Cl)c1
